Experimental data from patent publication US20230093861A1, “RAPAMYCIN ANALOGS AS MTOR INHIBITORS” (Revolution Medicines, Inc., priority 2017, published 2023).
Each block holds one molecule with its values, some of them ahead of it.

Assays:
P-P70S6K (T389) = assay: Cell based AlphaLISA assay, inhibition of P-P70S6K (T389) (mTORC1 substrate phosphorylation) in MDA-MB-468 cells; details: Homo sapiens, 4 h, AlphaLISA, two to four hours at 37° C., read-out: pIC50 for Inhibition of mTORC1 and mTORC2 Substrate Phosphorylation, P-P70S6K-(T389) (converted)
Summary of the method: (§1)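 IC50s come from control-normalized curve fits of duplicate Alpha signals. Cell lysates were probed with SureFire Ultra kits for mTORC1 substrates 4E-BP1 T37/46 and P70S6K T389 and mTORC2 substrate Akt S473 in MDA-MB-468 cells exposed to inhibitor.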

P-4E-BP1 (T37/46) = assay: Cell based AlphaLISA assay, inhibition of P-4E-BP1 (T37/46) (mTORC1 substrate phosphorylation) in MDA-MB-468 cells; details: Homo sapiens, MDA-MB-468, 4 h, AlphaLISA, two to four hours at 37° C., read-out: pIC50 for Inhibition of mTORC1 and mTORC2 Substrate Phosphorylation, P-4E-BP1-(T37/46) (converted)
Summary of the method: as §1

P-Akt (S473) = assay: Cell based AlphaLISA assay, inhibition of P-Akt (S473) (mTORC2 substrate phosphorylation) in MDA-MB-468 cells; details: Homo sapiens, MDA-MB-468, 4 h, AlphaLISA, two to four hours at 37° C., read-out: pIC50 for Inhibition of mTORC1 and mTORC2 Substrate Phosphorylation, p-AKT 1/2/3 -(S473) (converted)
Summary of the method: as §1

Structure (SMILES): CO[C@H]1C[C@@H]2CC[C@@H](C)[C@@](O)(O2)C(=O)C(=O)N2CCCC[C@H]2C(=O)O[C@H]([C@H](C)C[C@@H]2CC[C@@H](OCCCCc3cn(CCOCCOCCOCCOCCOCCOCCOCCOCCC(=O)NCCCCn4nc(-c5cccc(C(=O)NC6=NCCS6)c5)c5c(N)ncnc54)nn3)[C@H](OC)C2)CC(=O)[C@H](C)/C=C(\C)[C@@H](O)[C@@H](OC)C(=O)[C@H](C)C[C@H](C)/C=C/C=C/C=C/1C [Example 40]
IC50 (P-P70S6K (T389)): < 1 nM
IC50 (P-4E-BP1 (T37/46)): < 3.16 nM
IC50 (P-Akt (S473)): 31.6 to 1000 nM

Structure (SMILES): CO[C@H]1C[C@@H]2CC[C@@H](C)[C@@](O)(O2)C(=O)C(=O)N2CCCC[C@H]2C(=O)O[C@H]([C@H](C)C[C@@H]2CC[C@H](n3nncc3-c3cccc(-c4cnc(N5CCN(Cc6cn(CCOCCOCCOCCOCCOCCC(=O)NCCCCn7nc(-c8ccc9oc(N)nc9c8)c8c(N)ncnc87)nn6)C(CO)C5)nc4)c3)[C@H](OC)C2)CC(=O)[C@H](C)/C=C(\C)[C@@H](O)[C@@H](OC)C(=O)[C@H](C)C[C@H](C)/C=C/C=C/C=C/1C (stereo partly drawn) [Example 32]
IC50 (P-P70S6K (T389)): 1 to 10 nM
IC50 (P-4E-BP1 (T37/46)): 3.16 to 31.6 nM
IC50 (P-Akt (S473)): 3.16 to 31.6 nM

Structure (SMILES): CO[C@H]1C[C@@H]2CC[C@@H](C)[C@@](O)(O2)C(=O)C(=O)N2CCCC[C@H]2C(=O)O[C@H]([C@H](C)C[C@@H]2CC[C@H](n3cc(COC(=O)NCCOCCOCCOCCC(=O)NCc4cnc(N5CCN(c6ncc(C(=O)NCCCCn7nc(-c8ccc9oc(N)nc9c8)c8c(N)ncnc87)cn6)CC5)nc4)nn3)[C@H](OC)C2)CC(=O)[C@H](C)/C=C(\C)[C@@H](O)[C@@H](OC)C(=O)[C@H](C)C[C@H](C)/C=C/C=C/C=C/1C [Example 183]
IC50 (P-P70S6K (T389)): < 1 nM
IC50 (P-4E-BP1 (T37/46)): < 3.16 nM
IC50 (P-Akt (S473)): 3.16 to 31.6 nM

Structure (SMILES): CO[C@H]1C[C@@H]2CC[C@@H](C)[C@@](O)(O2)C(=O)C(=O)N2CCCC[C@H]2C(=O)O[C@H]([C@H](C)C[C@@H]2CC[C@H](n3cc(COC(=O)NCCOCCOCCOCCC(=O)NCCOCCOCCC(=O)NCCCCn4nc(-c5ccc6oc(N)nc6c5)c5c(N)ncnc54)nn3)[C@H](OC)C2)C[C@@H](OC)[C@H](C)/C=C(\C)[C@@H](O)[C@@H](OC)C(=O)[C@H](C)C[C@H](C)/C=C/C=C/C=C/1C [Example 143]
IC50 (P-P70S6K (T389)): 1 to 10 nM
IC50 (P-4E-BP1 (T37/46)): 31.6 to 1000 nM
IC50 (P-Akt (S473)): > 1000 nM

Structure (SMILES): CO[C@H]1C[C@@H]2CC[C@@H](C)[C@@](O)(O2)C(=O)C(=O)N2CCCC[C@H]2C(=O)O[C@H]([C@H](C)C[C@@H]2CC[C@H](n3nncc3-c3cccc(-c4cnc(N5CCN(Cc6cn(CCOCCOCCOCCC(=O)NCCCCn7nc(-c8ccc9oc(N)nc9c8)c8c(N)ncnc87)nn6)CC5)nc4)c3)[C@H](OC)C2)CC(=O)[C@H](C)/C=C(\C)[C@@H](O)[C@@H](OC)C(=O)[C@H](C)C[C@H](C)/C=C/C=C/C=C/1C [Example 31]
IC50 (P-P70S6K (T389)): < 1 nM
IC50 (P-4E-BP1 (T37/46)): < 3.16 nM
IC50 (P-Akt (S473)): 3.16 to 31.6 nM

Structure (SMILES): CCO[C@@H]1C[C@@H]([C@H](C)C[C@@H]2CC[C@H](n3cc(CCCC(=O)NCCOCCOCCOCCC(=O)NCCOCCOCCC(=O)NCCCCn4nc(-c5ccc6oc(N)nc6c5)c5c(N)ncnc54)nn3)[C@H](OC)C2)OC(=O)[C@@H]2CCCCN2C(=O)C(=O)[C@]2(O)O[C@@H](CC[C@H]2C)C[C@H](OC)/C(C)=C/C=C/C=C/[C@@H](C)C[C@@H](C)C(=O)[C@H](OC)[C@H](O)/C(C)=C/[C@H]1C [Example 165]
IC50 (P-P70S6K (T389)): 1 to 10 nM
IC50 (P-4E-BP1 (T37/46)): 31.6 to 1000 nM
IC50 (P-Akt (S473)): > 1000 nM

IC50 (P-P70S6K (T389)): < 1 nM
IC50 (P-4E-BP1 (T37/46)): 3.16 to 31.6 nM
IC50 (P-Akt (S473)): 3.16 to 31.6 nM
Structure (SMILES): COc1ccc(-c2ccc3ncc4c(c3c2)n(-c2ccc(N3CCN(C(=O)CCOCCOCCOCCOCCOCCOCCn5cc(CON=C6[C@H](C)C[C@H](C)/C=C/C=C/C=C(\C)[C@@H](OC)C[C@@H]7CC[C@@H](C)[C@@](O)(O7)C(=O)C(=O)N7CCCC[C@H]7C(=O)O[C@H]([C@H](C)C[C@@H]7CC[C@@H](O)[C@H](OC)C7)C[C@@H](O)[C@H](C)/C=C(\C)[C@@H](O)[C@H]6OC)nn5)CC3)c(C(F)(F)F)c2)c(=O)n4C)cn1 [Example 52]
